Experimental data: patent US7459450B2, “Neuropeptide receptor modulators” (Schering Corporation, priority 2004, dated 2008)

target: T1, Human NPY Y1 receptors (Homo sapiens, UniProt P25929); assay: NPY Receptor Binding Assay; conditions: Procedure D compound, rated A/B/C
T1 construct: expressed in transfected cells; host or cells: CHO cells (membrane protein)
T1 sequence (P25929 1-384): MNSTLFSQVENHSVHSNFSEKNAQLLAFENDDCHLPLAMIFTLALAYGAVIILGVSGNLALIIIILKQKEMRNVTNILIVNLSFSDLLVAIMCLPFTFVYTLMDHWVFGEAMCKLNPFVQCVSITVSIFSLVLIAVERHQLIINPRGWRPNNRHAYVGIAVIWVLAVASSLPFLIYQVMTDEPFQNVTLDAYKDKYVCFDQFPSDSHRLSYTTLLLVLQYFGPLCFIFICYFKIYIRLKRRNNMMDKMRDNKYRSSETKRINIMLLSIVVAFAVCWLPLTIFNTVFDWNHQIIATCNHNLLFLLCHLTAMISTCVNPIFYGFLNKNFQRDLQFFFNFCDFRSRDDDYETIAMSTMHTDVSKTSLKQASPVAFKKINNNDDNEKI

Q: For COC1CN=C(Nc2ccc(CCNc3nc4ccccc4s3)cc2)S1 (centres unmarked) [compound 61], which Ki is on record?
A: The Ki was 1 to 10 µM.

same assay, conditions: Procedure G compounds, rated A/B/C

Q: Which Ki does the source give for c1ccc(-c2nc(Nc3ccc(CCNc4nc5ccccc5s4)cc3)sc2-c2ccccc2)cc1 [Example 421] here?
A: Its Ki is > 10 µM.

Q: Which Ki does the source give for c1ccc2cc(-c3csc(Nc4ccc(CCNc5nc6ccccc6s5)cc4)n3)ccc2c1 [Example 422] here?
A: Its Ki is > 10 µM.

Q: Which Ki does the source give for c1ccc(-c2csc(Nc3ccc(CCNc4nc5ccccc5s4)cc3)n2)cc1 [Example 423] here?
A: Its Ki is > 10 µM.

Q: With c1ccc2sc(NCCc3ccc(Nc4nc(C56C[C@H]7C[C@@H](C5)C[C@@H](C6)C7)cs4)cc3)nc2c1 [Example 424] as the compound, how does the Ki read?
A: Its Ki is > 10 µM.

Q: How did the Ki turn out when COc1ccccc1-c1csc(Nc2ccc(CCNc3nc4ccccc4s3)cc2)n1 [Example 425] was run?
A: The Ki was > 10 µM.

Q: COc1ccc(-c2csc(Nc3ccc(CCNc4nc5ccccc5s4)cc3)n2)c(OC)c1 [Example 426] was tested. Which Ki did it give?
A: The Ki was > 10 µM.

Q: Which Ki does the source give for CCOC(=O)c1sc(Nc2ccc(CCNc3nc4ccccc4s3)cc2)nc1C [Example 427] here?
A: Its Ki is > 10 µM.

Q: With Cc1nc(Nc2ccc(CCNc3nc4ccccc4s3)cc2)sc1C [Example 428] as the compound, how does the Ki read?
A: The Ki was > 10 µM.

Q: CC(=O)c1sc(Nc2ccc(CCNc3nc4ccccc4s3)cc2)nc1C [Example 429] was tested. Which Ki did it give?
A: The Ki was > 10 µM.

Q: Which Ki does the source give for CCc1csc(Nc2ccc(CCNc3nc4ccccc4s3)cc2)n1 [Example 430] here?
A: The Ki was > 10 µM.

Q: COC(=O)Cc1csc(Nc2ccc(CCNc3nc4ccccc4s3)cc2)n1 [Example 431] was tested. Which Ki did it give?
A: Its Ki is > 10 µM.

Q: For CCOC(=O)c1sc(Nc2ccc(CCNc3nc4ccccc4s3)cc2)nc1C(F)(F)F [Example 432], which Ki is on record?
A: Its Ki is > 10 µM.

Q: CC(C)(C)c1csc(Nc2ccc(CCNc3nc4ccccc4s3)cc2)n1 [Example 433] was tested. Which Ki did it give?
A: The Ki was > 10 µM.

Q: Which Ki does the source give for CCOC(=O)CC(C)(C)c1csc(Nc2ccc(CCNc3nc4ccccc4s3)cc2)n1 [Example 434] here?
A: The Ki was > 10 µM.

Q: Which Ki does the source give for O=C(O)c1csc(Nc2ccc(CCNc3nc4ccccc4s3)cc2)n1 [Example 435] here?
A: Its Ki is > 10 µM.

Q: With COc1ccc(-c2csc(Nc3ccc(CCNc4nc5ccccc5s4)cc3)n2)cc1 [Example 436] as the compound, how does the Ki read?
A: The Ki was > 10 µM.

Q: Cc1nc(Nc2ccc(CCNc3nc4ccccc4s3)cc2)sc1C(=O)N(C)C [Example 437] was tested. Which Ki did it give?
A: Its Ki is > 10 µM.

same assay, conditions: Procedure H compounds, rated A/B/C

Q: How did the Ki turn out when O=C1CSC(Nc2ccc(CCNc3nc4ccccc4s3)cc2)=N1 [Example 439] was run?
A: Its Ki is > 10 µM.

Q: With CC(O)CC1SC(Nc2ccc(CCNc3nc4ccccc4s3)cc2)=NC1=O (centres unmarked) [Example 440] as the compound, how does the Ki read?
A: Its Ki is > 10 µM.

Q: Which Ki does the source give for O=C1N=C(Nc2ccc(CCNc3nc4ccccc4s3)cc2)SC1CCO (centres unmarked) [Example 441] here?
A: Its Ki is > 10 µM.

Q: For CCCCC1SC(Nc2ccc(CCNc3nc4ccccc4s3)cc2)=NC1=O (centres unmarked) [Example 442], which Ki is on record?
A: Its Ki is > 10 µM.

Q: With CCC1SC(Nc2ccc(CCNc3nc4ccccc4s3)cc2)=NC1=O (centres unmarked) [Example 443] as the compound, how does the Ki read?
A: Its Ki is > 10 µM.

Q: For O=C1N=C(Nc2ccc(CCNc3nc4ccccc4s3)cc2)SC1c1ccccc1 (centres unmarked) [Example 444], which Ki is on record?
A: The Ki was > 10 µM.

Q: Which Ki does the source give for O=C1N=C(Nc2ccc(CCNc3nc4ccccc4s3)cc2)SC1c1ccccc1O (centres unmarked) [Example 445] here?
A: Its Ki is > 10 µM.

Q: How did the Ki turn out when CCCC1SC(Nc2ccc(CCNc3nc4ccccc4s3)cc2)=NC1=O (centres unmarked) [Example 446] was run?
A: The Ki was > 10 µM.

Q: CCCCCC1SC(Nc2ccc(CCNc3nc4ccccc4s3)cc2)=NC1=O (centres unmarked) [Example 447] was tested. Which Ki did it give?
A: The Ki was > 10 µM.

same assay, conditions: Procedure I compounds, column head blank, rated A/B/C

Q: With c1ccc(C2CCCCC(Nc3ccc(CCNc4nc5ccccc5s4)cc3)=N2)cc1 (centres unmarked) [Example 448] as the compound, how does the Ki read?
A: Its Ki is 1 to 10 µM.

Q: c1ccc(C2CCCC(Nc3ccc(CCNc4nc5ccccc5s4)cc3)=N2)cc1 (centres unmarked) [Example 449] was tested. Which Ki did it give?
A: The Ki was 1 to 10 µM.
